Data published in ChEMBL document CHEMBL1142399, “Water-soluble pleuromutilin derivative with excellent in vitro and in vivo antibacterial activity against gram-positive pathogens” (J Med Chem, 2008).
Values after ≈ are worked out from the molar mass of the structure shown.

Columns and labels:
Haemophilus influenzae = test: Antibacterial activity against Haemophilus influenzae TH13 by broth microdilution method; type: functional
[1] = tested on: Mycoplasmoides pneumoniae; test: Antibacterial activity against Mycoplasma pneumoniae Mac by broth microdilution method; type: functional
[2] = tested on: Staphylococcus saccharolyticus; test: Antibacterial activity against Staphylococcus saccharolyticus GAI 5520 by broth microdilution method; type: functional
[3] = tested on: Peptoniphilus asaccharolyticus; test: Antibacterial activity against Peptostreptococcus asaccharolyticus GAI 5534 by broth microdilution method; type: functional
Finegoldia magna = test: Antibacterial activity against Peptostreptococcus magnus GAI 5528 by broth microdilution method; type: functional
Staphylococcus aureus [4] = test: microbe, parasite or virus in culture
Staphylococcus aureus [5] = test: microbe, parasite or virus in culture; conditions: KMP9
Enterococcus faecium [6] = test: microbe, parasite or virus in culture; conditions: ATCC 19434
Staphylococcus aureus [7] = test: microbe, parasite or virus in culture; conditions: Smith
Staphylococcus aureus [8] = test: microbe, parasite or virus in culture; remark: listed apart in the source
Cutibacterium acnes = test: Antibacterial activity against Propionibacterium acnes GAI 5568 by broth microdilution method; type: functional
[9] = tested on: Staphylococcus epidermidis; test: Antibacterial activity against Staphylococcus epidermidis ATCC 12228 by broth microdilution method; type: functional
Streptococcus pneumoniae [10] = test: microbe, parasite or virus in culture; conditions: ATCC 49619
Clostridium perfringens = test: Antibacterial activity against Clostridium perfringens GAI 5526 by broth microdilution method; type: functional
Streptococcus pyogenes = test: Antibacterial activity against Streptococcus pyogenes ATCC 12344 by broth microdilution method; type: functional
Moraxella catarrhalis = test: Antibacterial activity against Moraxella catarrhalis K1209 by broth microdilution method; type: functional
Staphylococcus aureus [11] = test: Antibacterial activity against methicillin-resistant Staphylococcus aureus KT0116 in mouse dosed iv 1 hr after infection; type: functional
Enterococcus faecium [12] = test: Antibacterial activity against vancomycin-resistant Enterococcus faecium KU1778 clinical isolate by broth microdilution method; type: functional
Streptococcus pneumoniae [13] = test: Antibacterial activity against penicillin-susceptible Streptococcus pneumoniae ATCC 49619 in mouse dosed iv 1 hr after infection; type: functional; conditions: ATCC 49619, iv
Atopobium parvulum = test: Antibacterial activity against Atopobium parvulum GAI 5542 by broth microdilution method; type: functional; conditions: Lancefieldella parvula
[14] = tested on: Peptostreptococcus anaerobius; test: Antibacterial activity against Peptostreptococcus anaerobius GAI 5506 by broth microdilution method; type: functional
Staphylococcus aureus [15] = test: Antibacterial activity against methicillin-susceptible Staphylococcus aureus Smith in mouse dosed iv 1 hr after infection; type: functional
Streptococcus pneumoniae [16] = test: Antibacterial activity against penicillin-resistant Streptococcus pneumoniae KT2524 in mouse dosed iv 1 hr after infection; type: functional
[17] = tested on: Propionibacterium granulosum; test: Antibacterial activity against Propionibacterium granulosum GAI 7414 by broth microdilution method; type: functional; conditions: Cutibacterium granulosum
[18] = tested on: Mycoplasmoides pneumoniae; test: Antibacterial activity against Mycoplasma pneumoniae FH Liu by broth microdilution method; type: functional
Streptococcus pneumoniae [19] = test: microbe, parasite or virus in culture
[20] = tested on: Streptococcus intermedius; test: Antibacterial activity against Streptococcus intermedius GAI 7416 by broth microdilution method; type: functional
Enterococcus faecalis = test: microbe, parasite or virus in culture; conditions: ATCC 29212
Streptococcus pneumoniae [21] = test: Antibacterial activity against penicillin-susceptible Streptococcus pneumoniae ATCC 6303 in mouse pulmonary infection model assessed as survival at 6.25 mg/kg, ip twice daily for 3 days; type: functional; conditions: route intraperitoneal
Staphylococcus aureus [22] = test: Antibacterial activity against methicillin-susceptible Staphylococcus aureus Smith in po dosed mouse twice daily; type: functional
Streptococcus pneumoniae [23] = test: Antibacterial activity against penicillin-susceptible Streptococcus pneumoniae ATCC 49619 in mouse dosed twice iv 1 hr and 4 hrs after infection; type: functional; conditions: ATCC 49619, iv
[24] = Solubility in water; type: physicochemical
Staphylococcus aureus [25] = test: Antibacterial activity against methicillin-resistant Staphylococcus aureus KT0116 in mouse dosed twice iv 1 hr and 4 hrs after infection; type: functional
Streptococcus pneumoniae [26] = test: Antibacterial activity against penicillin-resistant Streptococcus pneumoniae KT2524 in mouse dosed twice iv 1 hr and 4 hrs after infection; type: functional
Staphylococcus aureus [27] = test: Antibacterial activity against methicillin-susceptible Staphylococcus aureus Smith in mouse dosed twice iv 1 hr and 4 hrs after infection; type: functional

| SMILES | MIC (Haemophilus influenzae) [µg/mL] | MIC [1] [µg/mL] | MIC [2] [µg/mL] | MIC [3] [µg/mL] | MIC (Finegoldia magna) [µg/mL] | MIC (Staphylococcus aureus [4]) [µg/mL] | MIC (Staphylococcus aureus [5]) [µg/mL] | MIC (Enterococcus faecium [6]) [µg/mL] | MIC (Staphylococcus aureus [7]) [µg/mL] | MIC (Staphylococcus aureus [8]) [µg/mL] | MIC (Cutibacterium acnes) [µg/mL] | MIC [9] [µg/mL] | MIC (Streptococcus pneumoniae [10]) [µg/mL] | MIC (Clostridium perfringens) [µg/mL] | MIC (Moraxella catarrhalis) [µg/mL] | ED50 (Staphylococcus aureus [11]) [mg/kg] | MIC (Enterococcus faecium [12]) [µg/mL] | ED50 (Streptococcus pneumoniae [13]) [mg/kg] | ED50 (Staphylococcus aureus [15]) [mg/kg] | ED50 (Streptococcus pneumoniae [16]) [mg/kg] | further results |
| --- | --- | --- | --- | --- | --- | --- | --- | --- | --- | --- | --- | --- | --- | --- | --- | --- | --- | --- | --- | --- | --- |
| CN(C)c1ccc(O)c2c1C[C@H]1C[C@H]3[C@H](N(C)C)C(O)=C(C(N)=O)C(=O)[C@@]3(O)C(O)=C1C2=O [MINOCYCLINE] | 0.5 (≈ 1.09 µM) | 0.25 (≈ 0.546 µM) | 0.125 (≈ 0.273 µM) | 16 (≈ 35 µM) | 0.125 (≈ 0.273 µM) | 16 (≈ 35 µM) | 4 (≈ 8.74 µM) | 0.063 (≈ 0.138 µM) | 0.063 (≈ 0.138 µM) | 0.063 (≈ 0.138 µM) | 0.125 (≈ 0.273 µM) | 0.125 (≈ 0.273 µM) | 0.032 (≈ 0.0699 µM) | 0.063 (≈ 0.138 µM) | 0.25 (≈ 0.546 µM) | 50 | 0.063 (≈ 0.138 µM) | 0.968 | 0.515 | 50 | MIC (Streptococcus pyogenes): 0.063 µg/mL (≈ 0.138 µM); MIC (Atopobium parvulum): 0.25 µg/mL (≈ 0.546 µM); MIC [14]: 0.032 µg/mL (≈ 0.0699 µM); MIC [17]: 0.25 µg/mL (≈ 0.546 µM); MIC [18]: 0.25 µg/mL (≈ 0.546 µM); MIC (Streptococcus pneumoniae [19]): 8 µg/mL (≈ 17.5 µM); MIC [20]: 0.25 µg/mL (≈ 0.546 µM) |
| C[C@H]1COc2c(N3CCN(C)CC3)c(F)cc3c(=O)c(C(=O)O)cn1c23.C[C@H]1COc2c(N3CCN(C)CC3)c(F)cc3c(=O)c(C(=O)O)cn1c23.O [LEVOFLOXACIN] | 0.032 | 0.063 | 0.125 | 2 | 0.125 | > 128 | > 128 | 4 | 0.125 | 0.125 | 0.25 | 0.25 |  | 0.25 | 0.063 | > 100 | 64 | 24.7 | 0.78 | > 100 | MIC (Enterococcus faecalis): 0.5 µg/mL; MIC (Streptococcus pyogenes): 0.5 µg/mL; MIC (Atopobium parvulum): 0.25 µg/mL; MIC [14]: 0.125 µg/mL; MIC [17]: 0.25 µg/mL; MIC [18]: 0.125 µg/mL; MIC [20]: 0.5 µg/mL |
| CO/N=C(\C(=O)N[C@@H]1C(=O)N2C(C(=O)O)=C(CSc3nc(=O)c(O)nn3C)CS[C@H]12)c1csc(N)n1 [CEFTRIAXONE] | 0.008 (≈ 0.0144 µM) |  |  |  |  | > 128 | > 128 | 4 (≈ 7.21 µM) | 2 (≈ 3.61 µM) | 2 (≈ 3.61 µM) |  | 2 (≈ 3.61 µM) | 0.063 (≈ 0.114 µM) |  | 0.25 (≈ 0.451 µM) | > 100 | > 128 | 0.22 | 3.72 | 27.5 | MIC (Enterococcus faecalis): 4 µg/mL (≈ 7.21 µM); MIC (Streptococcus pyogenes): 0.016 µg/mL (≈ 0.0289 µM); MIC (Streptococcus pneumoniae [19]): 0.5 µg/mL (≈ 0.902 µM) |
| CN[C@H](CC(C)C)C(=O)N[C@H]1C(=O)N[C@@H](CC(N)=O)C(=O)N[C@H]2C(=O)N[C@H]3C(=O)N[C@H](C(=O)N[C@H](C(=O)O)c4cc(O)cc(O)c4-c4cc3ccc4O)[C@H](O)c3ccc(c(Cl)c3)Oc3cc2cc(c3O[C@@H]2O[C@H](CO)[C@@H](O)[C@H](O)[C@H]2O[C@H]2C[C@](C)(N)[C@H](O)[C@H](C)O2)Oc2ccc(cc2Cl)[C@H]1O [VANCOMYCIN] | > 128 | > 128 | 2 (≈ 1.38 µM) | 0.125 (≈ 0.0863 µM) | 0.25 (≈ 0.173 µM) |  |  |  |  |  | 0.5 (≈ 0.345 µM) |  | 0.25 (≈ 0.173 µM) | 0.5 (≈ 0.345 µM) | 64 (≈ 44.2 µM) | 1.01 | > 128 | 1.06 | 0.88 | 2.37 | Activity (Streptococcus pneumoniae [21]): 50%; MIC (Atopobium parvulum): 2 µg/mL (≈ 1.38 µM); MIC [14]: 0.25 µg/mL (≈ 0.173 µM); MIC [17]: 0.5 µg/mL (≈ 0.345 µM); MIC [18]: > 128 µg/mL; MIC (Streptococcus pneumoniae [19]): 0.5 µg/mL (≈ 0.345 µM); MIC [20]: 1 µg/mL (≈ 0.69 µM) |
| C=C[C@]1(C)C[C@@H](OC(=O)CSC2CCN(C(=O)CCn3cnc4c(N5CCNCC5)nc(N)nc43)CC2)[C@@]2(C)C3C(=O)CC[C@@]3(CC[C@H]2C)[C@@H](C)[C@@H]1O (stereo partly specified) | 0.125 (≈ 0.166 µM) | 0.008 (≈ 0.0107 µM) | 0.06 (≈ 0.0799 µM) | 0.032 (≈ 0.0426 µM) | 0.063 (≈ 0.0839 µM) | 0.5 (≈ 0.666 µM) | 0.5 (≈ 0.666 µM) | 0.063 (≈ 0.0839 µM) | 0.25 (≈ 0.333 µM) | 0.063 (≈ 0.0839 µM) | 0.008 (≈ 0.0107 µM) | 0.063 (≈ 0.0839 µM) | 0.063 (≈ 0.0839 µM) | 0.063 (≈ 0.0839 µM) | 0.032 (≈ 0.0426 µM) | 2.15 | 0.063 (≈ 0.0839 µM) | 1.54 | 1.86 | 1.55 | ED50 (Staphylococcus aureus [22]): > 50 mg/kg; ED50 (Streptococcus pneumoniae [23]): 1.34 mg/kg; MIC (Enterococcus faecalis): 64 µg/mL (≈ 85.2 µM); solubility [24]: 50 mg/mL (≈ 66600 µM); MIC (Streptococcus pyogenes): 0.032 µg/mL (≈ 0.0426 µM); Activity (Streptococcus pneumoniae [21]): 50%; ED50 (Staphylococcus aureus [25]): 0.91 mg/kg; ED50 (Streptococcus pneumoniae [26]): 1.88 mg/kg; MIC (Atopobium parvulum): 0.25 µg/mL (≈ 0.333 µM); MIC [14]: 0.032 µg/mL (≈ 0.0426 µM); ED50 (Staphylococcus aureus [27]): 1.51 mg/kg; MIC [17]: 0.016 µg/mL (≈ 0.0213 µM); MIC [18]: 0.008 µg/mL (≈ 0.0107 µM); MIC (Streptococcus pneumoniae [19]): 0.063 µg/mL (≈ 0.0839 µM); MIC [20]: 0.25 µg/mL (≈ 0.333 µM) |
